6 compounds from ChEMBL document CHEMBL1121876, “gamma-Aminobutyric acid agonists, antagonists, and uptake inhibitors. Design and therapeutic aspects” (J Med Chem, 1981) can be followed below.

Assay [1] addresses GABA-A receptor; anion channel. Put plainly: Activation of binding of [3H]diazepam to Gamma-aminobutyric acid receptor. The format is protein-complex assay.
Assay [2] addresses GABA-A receptor; anion channel. The experiment in a line: In vitro inhibition of [3H]GABA binding to Gamma-aminobutyric acid receptor of human astrocytes.
Assay [3] deals with GABA-A receptor; anion channel. Put plainly: In vitro inhibition of [3H]P4S binding to Gamma-aminobutyric acid receptor of human astrocytes.
The target in assay [4] is GABA-A receptor; anion channel. Put plainly: In vitro inhibition of [3H]-THIP binding to Gamma-aminobutyric acid receptor of human astrocytes.
Assay [5] has as its target GABA-A receptor; anion channel. The experiment in a line: In vitro inhibition of [3H]isoguvacine binding to Gamma-aminobutyric acid receptor of human astrocytes.
For assay [6], the target named is GABA-A receptor; anion channel. The experiment in a line: In vitro inhibition of [3H]muscimol binding to Gamma-aminobutyric acid receptor of human astrocytes.
Assay [7] is described as follows: Inhibition of glial GABA uptake. Format: functional.
Assay [8] is described as follows: Inhibition of neuronal GABA uptake. The format is functional.

Take `C[C@H](N)/C=C/C(=O)O`: in assay [1], a half-maximal response (EC50) required 390 µM. Besides, the IC50 (in general, the midpoint of a concentration-inhibition curve) was 4.1 µM in assay [2]; 21 µM in assay [3]; 2600 nM in assay [4]; 2.5 µM in assay [5]; 3.5 µM in assay [6]; greater than 5 mM in assay [7]. For the same compound, in assay [8], the IC50 was greater than 5000 µM.

On to `C[C@@H](N)CCC(=O)O`, for which it took 410 µM to reach a half-maximal effect in assay [1] (EC50). For the same compound, the half-inhibitory concentration (IC50) in assay [2] was 5 µM; in assay [3] it was 21 µM; in assay [4], 2500 nM; in assay [5], 6.1 µM; in assay [6], 4.3 µM; in assay [7], 0.12 mM. For the same compound, in assay [8], half-maximal inhibition (IC50) required 200 µM.

For `C[C@@H](N)/C=C/C(=O)O`, in assay [1], the 50% effective concentration (EC50) – broadly, the concentration giving half of the maximal effect – is greater than 2000 µM. The IC50 in assay [2] was found to be 148 µM; in assay [3] it was 670 µM; in assay [4], 88000 nM; in assay [5], 84 µM; in assay [6], 145 µM; in assay [7] it was 0.5 mM. Moreover, in assay [8], the midpoint of inhibition, the IC50, lay at 160 µM.

Take `C[C@@H](N)c1cc(O)no1`: it took 2300 µM to reach a half-maximal effect in assay [1] (EC50). Besides, the IC50 in assay [2] was 19 µM; in assay [3], 83 µM; in assay [4], 9500 nM; in assay [5], 8.2 µM; in assay [6], 8.9 µM; in assay [7], greater than 1 mM. In assay [8], this compound had an IC50 greater than 1000 µM.

Consider `C[C@H](N)CCC(=O)O`, for which, in assay [1], the response was half-maximal at 550 µM (EC50). The IC50 in assay [2] was 4.7 µM; in assay [3] it was 24 µM; in assay [4] it was 2900 nM; in assay [5], 5.2 µM; in assay [6], 2.5 µM; in assay [7], 1 mM. Also, in assay [8], inhibition was half-maximal at 750 µM (IC50).

For `C[C@H](N)c1cc(O)no1`, the EC50 in assay [1] is 230 µM. Further, the IC50 in assay [2] is 0.64 µM; in assay [3], 5.8 µM; in assay [4], 740 nM; in assay [5], 1.6 µM; in assay [6], 0.51 µM; in assay [7], greater than 1 mM. This compound also came in with a half-maximal inhibitory concentration (IC50) in assay [8] greater than 1000 µM.
